The values below come from article PMC9286045 (Journal of Peptide Science, 2021).

Where “and” joins values, the source holds several entries; their conditions need not be identical. Equal values may be shown once. Read-outs that look alike come from different tables or passages of the source. Numbered stars: 1 amine (or outer) side, 2 acyl side, 3 side chain; on linkers, the order of the positions; unused ones are H or OH. Bridge positions count the residues as written; N and C are the ends. Square brackets hold non-standard residues; d marks the D form. Peptide text beside a SMILES is read from it. Abu(4-yl) = O=C([C@H](CC[*:3])N[*:1])[*:2]; X1 = O=C([C@@H](O)CS[*:2])[*:1]; X2 = O=C(CCC[*:2])[*:1]

Series [1] deals with OXT-receptor compartment of the potassium depolarized rat myometrium.
Excerpt: (§1) Female virgin Sprague–Dawley rats (body weight approximately 200 g) in natural oestrus (detected by vaginal smears) were sacrificed by decapitation, both uterus horns were dissected and the perimetrium was pulled off. Their middle sections (approximately 15 mm) were longitudinally cut into 3‐ to 4‐mm strips; the endometrium (the inward layer of the horns) was removed by scraping. In average, three strips of each animal (31 rats in total) were used in the experiments.
(§2) A stripe was mounted in an adapted annealed organ chamber (17 mm × 65 mm) with a ventilation inlet tube containing 10‐ml Munsick medium (see above) and attached to an isometric force transducer. The basic tension was adjusted to 10 ± 0.2 mN (1 gf, gram‐force). Measurements were carried out at 30°C under continuous ventilation with Carbogen gas (25% O2 + 5% CO2). […] Each strip used for stimulation by a single peptide (for concentration of stimulating agents, cf. Table 2). Oil‐immersion and washout experiments were carried out on different strips from the same animal. Stimulation runs (two to four per strip) for each peptide were repeated on strips of different rat uteri.
(§3) Tonic contraction of the depolarized myometrium strips in a high potassium Ringer organ bath medium[46] (concentration of Ca^2+ and of Mg^2+: 0.5 mM) was elicited by roughly equipotent concentrations of single peptides around their D 2 values (the concentration causes the half of the maximally attainable contraction in oestrogen‐dominated myometrium). After reaching a steady‐state level (stimulation phase), the medium was exchanged by a low viscosity paraffin oil (oil‐immersion phase) or alternatively by the peptide‐free bath medium (washout phase). The time‐tension profiles of the strip were recorded by an isometric force transducer (Statham strain gauge UC3).
(§4) We employed here its modified version focused on the comparison of clearance and transport rate constants (Figure 2). It consists virtually of two distribution spaces: the receptor compartment (subscript r; see Section 4) and the external aqueous tissue medium (w). The rate of mass transport of agents through the tissue‐medium interface (transport constants k r , k w ) is directly proportional to the rate constant of diffusion k (dimension: volume/time) and inversely proportional to the respective compartment volume V r , V w : for the receptor compartment k r = k/V r , for the medium k w = k/V w . The constant κ relates to the (irreversible) clearance rate from the receptor compartment (dimension: time^−1). The rate equations determining the time response of the peptide concentrations in the corresponding compartments (c r , c w ) are then (1a) c˙w=−kcw−cr/Vw, (1b) c˙r=kcw−cr/Vr−κcr, wherein dotted symbols denote first derivatives with respect to time t: x˙≡dx/dt . • In the stimulation phase, concentration c w is expected to be constant, c w = c 0 (and c˙w=0 ) within the time interval of stimulation; the integration of Equation 1b yields (2) crt=cr,∞1−e^−kr+κt, where c r,∞ is a steady state value of c r , (3) cr,∞≡limt→∞crt=c0kr/kr+κ.
(§5) • In the wash‐out decay phase, the concentration in the external medium (c w ) is kept zero by a quick perifusion; c r,∞ is the initial value (t = 0), i.e., a c r steady state value before termination of the stimulation phase, (4) crt=cr,∞e^−kr+κt.
(§6) The sum k r + κ stands for the cumulative clearance rate constant of the peptide in the receptor compartment. • The insertion of oil (oil‐immersion decay phase) reduces the volume V w to a small residual aqueous layer v w around the tissue; obviously, v w ≪ V w and the corresponding modified mass transport rate constant kw′=k/vw is very large, limvw→0kw′=∞ .
Series [2] concerns uterus. Conditions: cited from earlier work.
For series [3] the following is noted: rats, cited from earlier work.
For series [4] the following is noted: human, in vivo; cited from earlier work.
Series [5] concerns OXT-receptor compartment of the potassium depolarized rat myometrium. Kind of series: Oil-immersion (stopped-transport) and washout time–response experiments on myometrium strips. Conditions: for Cumulative clearance k r + κ / k r (transport rate constant between receptor compartment and aqueous medium) / κ Observed (irreversible clearance rate constant in the receptor compartment): K+-depolarized rat myometrium strip ex vivo, 30°C, arithmetic mean ± SD of computation runs; for Cumulative clearance k r + κ: washout decay phase; for k r (transport rate constant between receptor compartment and aqueous medium): from combined oil-immersion and washout data; for κ Observed (irreversible clearance rate constant in the receptor compartment): high potassium Ringer medium (Ca2+, Mg2+ 0.5 mM), oil-immersion decay phase, isometric tension, nonlinear regression; for κ (N) − κ (D): κ-difference of coherent N & D pairs, value shared by both peptides of the pair, C1,6OT/DC1,6OT pair uses predicted κ.
Excerpt: as §1, §2, §3, §4, §5, §6

The test system is the same in series [6]. Kind of series: Fragmented inactivation model of GOT and DGOT (oil-immersion time–response data). Type of series: in vitro ADME. As to conditions: for κ AM (rate constant of residual clearance) / κ c (rate constant of ester hydrolysis [Glu(OMe)^4]‐X → [Glu^4]‐X): K+-depolarized rat myometrium, oil-immersion, arithmetic mean ± SD; for κ AM (rate constant of residual clearance): assumption κ A ≈ κ M, runs in parentheses; for κ c (rate constant of ester hydrolysis [Glu(OMe)^4]‐X → [Glu^4]‐X): nonlinear regression Equation 17, number of computation runs in parentheses, 95% confidence limits in < >; for Δκ AM: difference of mean values κ AM (GOT) − κ AM (DGOT), expected rate constant of N-terminal (aminopeptidase) splitting; for Estimates of κ: κ AM + κ c: sum of fragments. From the text: This is an alternative to model represented by Equation 12b, whereε A (t), ε M (t) are response fractions of the respective primary agents and of its active metabolite(s) (16a) ε˙At=−κc+κAεAt, (16b) ε˙Mt=κcεAt−κMεMt.
Figure 6 depicts the proposed reaction scheme.
Δ α = α M /α A is the standardised biological activity (e.g., in IU/mg). Exponential constants for GOT and DGOT were obtained by the nonlinear regression analysis using numeric procedures described above and are summarized in Table 3.

With “[6,1‐(2‐Amino‐4‐thiasuberic acid)]‐OXT [DC6OT]”, in series [1], the “Cumulative clearance k r + κ” value is 0.147 ± 0.015 min⁻¹ and the “κ Observed (irreversible clearance rate constant in the receptor compartment)” value (“κ Observed” for short) was determined as 0.105 ± 0.008 min⁻¹.
Turning to [7‐glycine]‐oxytocin, the “ex vivo half‐life of uterotonic response as compared with oxytocin” value in series [2] was “considerably shorter half‐life”.
Turning to `CC[C@H](C)[C@@H]1NC(=O)[C@H](Cc2ccc(O)cc2)NC(=O)[C@@H](N)CSSC[C@@H](C(=O)N2CCC[C@H]2C(=O)N[C@@H](CC(C)C)C(=O)NCC(N)=O)NC(=O)[C@H](CC(N)=O)NC(=O)[C@H](CCC(N)=O)NC1=O` [OXT, Oxytocin, reference compound], in series [3] (regardless of gender and reproductive cycle), the “half‐life” value is 1.65 min. Besides, the elimination rate constant in series [3] (related to the half-life of 1.65 min) is 0.6 min⁻¹. Moreover, the “half‐life in the blood plasma” value in series [4] was 1.5 to 8 min. In series [5], the “Cumulative clearance k r + κ” value is 0.254 ± 0.028 min⁻¹; the “k r (transport rate constant between receptor compartment and aqueous medium)” value stood at 0.137 ± 0.030 min⁻¹; the “κ Observed” value turned out to be 0.137 ± 0.025 min⁻¹; the “κ (N) − κ (D)” value was 0.088 min⁻¹.
Turning to `CC[C@H](C)[C@@H]1NC(=O)[C@H](Cc2ccc(O)cc2)NC(=O)CCSSC[C@@H](C(=O)N2CCC[C@H]2C(=O)N[C@@H](CC(C)C)C(=O)NCC(N)=O)NC(=O)[C@H](CC(N)=O)NC(=O)[C@H](CCC(=O)OC)NC1=O` [DGOT, [1‐β‐mercaptopropionic acid, 4‐glutamic acid‐δ‐methylester]‐OXT], in series [6], the “κ AM (rate constant of residual clearance)” value is on record as 0.053 ± 0.014 (14) <0.045; 0.061> min^−1, the “κ c (rate constant of ester hydrolysis [Glu(OMe)^4]‐X → [Glu^4]‐X)” value was 0.032 ± 0.011 (14) <0.025; 0.038> min^−1, the “Δκ AM” value was 0.081 min⁻¹ and the “Estimates of κ: κ AM + κ c” value was 0.085 min⁻¹. Also, in series [5], the “Cumulative clearance k r + κ” value stood at 0.211 ± 0.027 min⁻¹; the “k r (transport rate constant between receptor compartment and aqueous medium)” value came to 0.107 ± 0.034 min⁻¹; the “κ Observed” value was 0.076 ± 0.018 min⁻¹ and 0.076 min⁻¹; the “κ (N) − κ (D)” value is 0.092 min⁻¹.
Consider `CC[C@H](C)[C@@H]1NC(=O)[C@H](Cc2ccc(O)cc2)NC(=O)CCSSC[C@@H](C(=O)N2CCC[C@H]2C(=O)N[C@@H](CC(C)C)C(=O)NNC(N)=O)NC(=O)[C@H](CC(N)=O)NC(=O)[C@H](CCC(N)=O)NC1=O` [DAOT, [1‐β‐mercaptopropionic acid, 9‐azaglycine]‐OXT], for which, in series [5], the “Cumulative clearance k r + κ” value turned out to be 0.194 ± 0.033 min⁻¹; the “k r (transport rate constant between receptor compartment and aqueous medium)” value amounted to 0.139 ± 0.044 min⁻¹; the “κ Observed” value turned out to be 0.042 ± 0.015 min⁻¹; the “κ (N) − κ (D)” value is 0.076 min⁻¹.
The matching figures for `CC[C@H](C)[C@@H]1NC(=O)[C@H](Cc2ccc(O)cc2)NC(=O)[C@@H](N)CCSC[C@@H](C(=O)N2CCC[C@H]2C(=O)N[C@@H](CC(C)C)C(=O)NCC(N)=O)NC(=O)[C@H](CC(N)=O)NC(=O)[C@H](CCC(N)=O)NC1=O` [Peptide C1OT, [6,1‐Cystathionine]‐OXT] (H-[Abu(4-yl)]YIQNCPLG-NH2; thioether 1-6): 0.272 ± 0.037 min⁻¹, 0.116 ± 0.041 min⁻¹, 0.162 ± 0.032 min⁻¹ and 0.060 min⁻¹.
As to `CC[C@H](C)[C@@H]1NC(=O)[C@H](Cc2ccc(O)cc2)NC(=O)[C@@H](N)CCCC[C@@H](C(=O)N2CCC[C@H]2C(=O)N[C@@H](CC(C)C)C(=O)NCC(N)=O)NC(=O)[C@H](CC(N)=O)NC(=O)[C@H](CCC(N)=O)NC1=O` [C1,6OT, [1,6‐α′,α‐diaminosuberic acid]‐OXT], in series [5], the “Cumulative clearance k r + κ” value came out at 0.263 ± 0.009 min⁻¹; the “k r (transport rate constant between receptor compartment and aqueous medium)” value is 0.194 ± 0.011 min⁻¹; the “κ Observed” value turned out to be 0.076 ± 0.005 min⁻¹.
In the case of `CC[C@H](C)[C@@H]1NC(=O)[C@H](Cc2ccc(O)cc2)NC(=O)[C@@H](N)CSSC[C@@H](C(=O)N2CCC[C@H]2C(=O)N[C@@H](CC(C)C)C(=O)NNC(N)=O)NC(=O)[C@H](CC(N)=O)NC(=O)[C@H](CCC(N)=O)NC1=O` [AOT, [9‐Azaglycine]‐OXT], in series [5], the “Cumulative clearance k r + κ” value was found to be 0.278 ± 0.015 min⁻¹; the “k r (transport rate constant between receptor compartment and aqueous medium)” value is 0.158 ± 0.020 min⁻¹; the “κ Observed” value came to 0.118 ± 0.008 min⁻¹; the “κ (N) − κ (D)” value was 0.076 min⁻¹.
Take `CC[C@H](C)[C@@H]1NC(=O)[C@H](Cc2ccc(O)cc2)NC(=O)[C@@H](N)CSSC[C@@H](C(=O)N2CCC[C@H]2C(=O)N[C@@H](CC(C)C)C(=O)NCC(N)=O)NC(=O)[C@H](CC(N)=O)NC(=O)[C@H](CCC(=O)OC)NC1=O` [GOT, [4‐Glutamic acid‐δ‐methylester]‐OXT]: in series [6], the “κ AM (rate constant of residual clearance)” value is reported as 0.134 ± 0.025 (12) <0.132; 0.135> min^−1, the “κ c (rate constant of ester hydrolysis [Glu(OMe)^4]‐X → [Glu^4]‐X)” value is given as 0.033 ± 0.012 (22) <0.028; 0.038> min^−1, the “Δκ AM” value was determined as 0.081 min⁻¹ and the “Estimates of κ: κ AM + κ c” value was 0.167 min⁻¹. In series [5], the “Cumulative clearance k r + κ” value stood at 0.267 min⁻¹; the “k r (transport rate constant between receptor compartment and aqueous medium)” value was 0.108 min⁻¹; the “κ Observed” value is 0.166 min⁻¹; the “κ (N) − κ (D)” value was 0.092 min⁻¹.
`CC[C@H](C)[C@@H]1NC(=O)[C@H](Cc2ccc(O)cc2)NC(=O)CCCSC[C@@H](C(=O)N2CCC[C@H]2C(=O)N[C@@H](CC(C)C)C(=O)NCC(N)=O)NC(=O)[C@H](CC(N)=O)NC(=O)[C@H](CCC(N)=O)NC1=O` [DC1OT, [1,6‐(2‐Amino‐4‐thiasuberic acid)]‐OXT] (YIQNCPLG-NH2; linker N-5 via X2): in series [5], the “Cumulative clearance k r + κ” value was 0.160 ± 0.021 min⁻¹; the “k r (transport rate constant between receptor compartment and aqueous medium)” value came out at 0.097 ± 0.025 min⁻¹; the “κ Observed” value stood at 0.102 ± 0.016 min⁻¹; the “κ (N) − κ (D)” value was 0.060 min⁻¹.
Turning to `CC[C@H](C)[C@@H]1NC(=O)[C@H](Cc2ccc(O)cc2)NC(=O)[C@@H](O)CSSC[C@@H](C(=O)N2CCC[C@H]2C(=O)N[C@@H](CC(C)C)C(=O)NCC(N)=O)NC(=O)[C@H](CC(N)=O)NC(=O)[C@H](CCC(N)=O)NC1=O` [HOT, [1‐(2‐Hydroxy‐3‐β‐mercaptopropanoic acid)]‐OXT] (YIQNCPLG-NH2; linker N-5 via X1), in series [5], the “Cumulative clearance k r + κ” value came out at 0.289 ± 0.010 min⁻¹; the “k r (transport rate constant between receptor compartment and aqueous medium)” value was determined as 0.139 ± 0.012 min⁻¹; the “κ Observed” value came out at 0.141 ± 0.008 min⁻¹.
Regarding `CC[C@H](C)[C@@H]1NC(=O)[C@H](Cc2ccc(O)cc2)NC(=O)CCSSC[C@@H](C(=O)N2CCC[C@H]2C(=O)N[C@@H](CC(C)C)C(=O)NCC(N)=O)NC(=O)[C@H](CC(N)=O)NC(=O)[C@H](CCC(N)=O)NC1=O` [DOT, [1‐β‐mercaptopropionic acid]‐OXT], in series [5], the “Cumulative clearance k r + κ” value was determined as 0.176 ± 0.024 min⁻¹; the “k r (transport rate constant between receptor compartment and aqueous medium)” value was determined as 0.149 ± 0.026 min⁻¹; the “κ Observed” value was determined as 0.049 ± 0.021 min⁻¹; the “κ (N) − κ (D)” value is 0.088 min⁻¹.
